Experimental data reported in patent US3941882A, “Rodenticidal imidazo-pyridines” (priority 1974, dated 1976).
Several values for one entry are separate records, joined by “and”; a condition that tells them apart may be missing. Equal entries are not always repeated.

What was measured:
[1] = test system: prothrombin time; test: Prothrombin time in male rats (Tables III and IV); type: in vivo, rats (Harlan albino strain); details: five days, group of 5 rats
Description: Representative compounds were evaluated for prothrombin time in standard laboratory male rats (Harlan albino strain) of weanling age. A standard laboratory animal diet was fed to one group of 5 rats to serve as a control; other groups of 5 rats received modified diets, each diet being the standard laboratory animal diet modified by the incorporation therein of 0.08 percent of the respective compound. Feeding was continued for five days, at which time a blood sample was taken from each rat and analyzed for prothrombin time. The analytical method was that of A. J. Quick, "The Determination of Prothrombin," 190 Am. J. Med. Sci. 501 (1935): and it was performed on the "Electra 600", a machine available from the Medical Laboratory Automation, Inc. The results are reported in Table III.
Additional evaluations of the effect of representative compounds of prothrombin time were conducted. The procedures were the same as those reported in Examples 30-33 except that the concentration of the respective compound was 0.02 percent.

[2] = test system: coagulation (prothrombin time, activated partial thromboplastin, thrombin clotting time, fibrinogen); test: Coagulation studies in dogs: clotting times and fibrinogen (Table V); type: in vivo, dogs (beagles); details: for Activated Partial Thromboplastin Time / Fibrinogen Levels / Prothrombin Time / Thrombin Clotting Time: 40 mg./kg. oral on each of 3 successive days, fourth day, per dog
Description: (§1) Each of 1-methoxy-6-chloro-2-trifluoromethyl-1H-imidazo-(4,5-b)pyridine and 1-hydroxy-6-chloro-2-trifluoromethyl-1H-imidazo(4,5-b)pyridine was evaluated in coagulation studies in dogs (beagles weighing about 10 kilograms each). Two dogs were employed with each compound, one female and one male.
In the first part of the evaluation, a blood sample was taken from each dog prior to any treatment with the respective compound. The sample was citrated and centrifuged for 10-15 minutes to segregate the plasma, which was separated and quick frozen. The dogs were then treated: each dog received 40 mg./kg. of the respective compound on each of 3 successive days; administration was by the oral route. On the fourth day, blood samples were again taken and processed as described above. Throughout the test, the dogs were provided with adequate food and water and otherwise maintained under good conditions. The samples were subsequently thawed and analyzed for prothrombin time activated partial thromboplastin, thrombin clotting time, and fibrinogen levels. The first three analyses were conducted on a "Bioquest Fibrometer", produced by Baltimore Biological Division of Becton and Dickinson at Cockeysville, Maryland 21030, Fibrinogen levels were determined by the method of H. O. Bang, 9 Scand. J. Clin. Lab. Inves. 205 (1957).

[3] = test system: Prothrombin (II); test: Coagulation factor concentration in dogs, factor II (Table VI); type: in vivo, dogs (beagles); details: 40 mg./kg. oral x 3 days; per dog
Description: as §1
(§2) In the second part of the evaluation, a sample was taken from each of the same four dogs prior to any treatment (at the same time as the initial sample for the first part of the evaluation), and the samples were pooled and evaluated for the concentration of individual clotting factors, to serve as a control. Following the treatment described above, a sample was again taken from each dog and individually analyzed in the same manner. The control figure was considered as 100 percent and the scores for the treated dogs were reported as percent of the control figure. Analyses were by the following methods:
Ii f. koller et al., 6 Acta Haem. 1 (1951).

[4] = test system: Ac Globulin (V); test: Coagulation factor concentration in dogs, factor V (Table VI); type: in vivo, dogs (beagles); details: 40 mg./kg. oral x 3 days; per dog
Description: as §1
as §2, with “figure.” for “figure. Analyses were by the following methods:”

[5] = test system: Proconvertin (VII); test: Coagulation factor concentration in dogs, factor VII (Table VI); type: in vivo, dogs (beagles); details: 40 mg./kg. oral x 3 days; per dog
Description: as §1, §2
Vii f. bachman et al., 1 Thrombosis Diathes. Haemorrh. 169 (1957)

[6] = test system: AHG (VIII); test: Coagulation factor concentration in dogs, factor VIII (Table VI); type: in vivo, dogs (beagles); details: 40 mg./kg. oral x 3 days; per dog
Description: as §1, §2
Viii r. d. langdell et al., 41 J. Lab. Clin. Med. 637 (1953).

[7] = test system: PTC (IX); test: Coagulation factor concentration in dogs, factor IX (Table VI); type: in vivo, dogs (beagles); details: 40 mg./kg. oral x 3 days; per dog
Description: as §1, §2
Ix w. f. stapp, 10 Scand. J. Clin. Lab. Inves. 169 l (1958).

[8] = test system: Stuart Factor (X); test: Coagulation factor concentration in dogs, factor X (Table VI); type: in vivo, dogs (beagles); details: 40 mg./kg. oral x 3 days; per dog
Description: as §1
as §2, with “figure.” for “figure. Analyses were by the following methods:”

[9] = test system: PTA (XI); test: Coagulation factor concentration in dogs, factor XI (Table VI); type: in vivo, dogs (beagles); details: 40 mg./kg. oral x 3 days; per dog
Description: as §1, §2
Xi s. i. rapaport, 57 J. Lab. Clin. Med. 771 (1961).

[10] = test system: Hageman Factor (XII); test: Coagulation factor concentration in dogs, factor XII (Table VI); type: in vivo, dogs (beagles); details: 40 mg./kg. oral x 3 days; per dog
Description: as §1, §2
Xii o. d. ratnoff in Thrombosis and Bleading Disorders, ed. by N. U. Bang et al. (G. Thieme, and Academic Press, N.Y., 1971), pages 214-221.

Row | SMILES | Deaths ([1]; 0.02 percent in diet) | Range of Prothrombin Time ([1]; 0.02 percent in diet) [s] | Deaths ([1]; 0.08 percent in diet) | Range of Prothrombin Time ([1]; 0.08 percent in diet) [s] | Activated Partial Thromboplastin Time [2] | Fibrinogen Levels [2] | Prothrombin Time [2] | Thrombin Clotting Time [2] | Prolongation of activated partial thromboplastin time (in words) ([2]; dogs, 40 mg./kg. oral x 3 days) | Coagulation Factor, Prothrombin (II) [3] | Coagulation Factor, Ac Globulin (V) [4] | Coagulation Factor, Proconvertin (VII) [5] | Coagulation Factor, AHG (VIII) [6] | Coagulation Factor, PTC (IX) [7] | Coagulation Factor, Stuart Factor (X) [8] | Coagulation Factor, PTA (XI) [9] | Coagulation Factor, Hageman Factor (XII) [10]
1 | COn1c(C(F)(F)F)nc2ncc(Cl)cc21 [1-methoxy-6-chloro-2-trifluoromethyl-1H-imidazo(4,5-b)pyridine] | none | 19.5 to 27.5 | none | 50.1 to 109.1 | 18.9 s and 26.2 s | 236 mg% and 222 mg% | 12.2 s and 12.9 s | 10.5 s and 13.9 s | prolongs activated partial thromboplastin time | 39 % of Control | 100 % of Control | 9 % of Control and 14 % of Control | 124 % of Control and 122 % of Control | 26 % of Control and 35 % of Control | 4 % of Control and 6 % of Control | 224 % of Control and 200 % of Control | 25 % of Control and 43 % of Control
2 | On1c(C(F)(F)F)nc2ncc(Cl)cc21 [1-hydroxy-6-chloro-2-trifluoromethyl-1H-imidazo(4,5-b)pyridine] |  |  |  |  | 22.9 s and 16.0 s | 223 mg% and 218 mg% | 9.9 s and 6.9 s | 12.2 s and 12.0 s |  | 70 % of Control | 100 % of Control | 11 % of Control and 20 % of Control | 94 % of Control and 100 % of Control | 45 % of Control and 66 % of Control | 11 % of Control and 25 % of Control | 128 % of Control and 140 % of Control | 37 % of Control and 18 % of Control
